# Test system: ABCA1 mRNA
# Test: ABCA1 mRNA induction in THP-1 cells, QuantiGene branched DNA assay
# Assay type: cell-based
# Details: 10 μM test compound, 18-20 hours
# Outline: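 THP-1 cells, grown to subconfluence, treated with compounds at 10 and 3 μM in DMEM/BSA for 18–20 h. Lysates hybridized with ABCA1-specific probe 16–18 h at 53 °C; QuantiGene branched DNA luminescence gives fold increase over DMSO.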
row,Compound,ABCA1 Induction Fold Increase over DMSO Vehicle [FOLD INCREASE]
1,"Cc1cccc2c1OCC1C2Nc2ccccc2C1(C)C (centres unmarked) [Number 31, 4,7,7-trimethyl-7,12,12a,6a-tetrahydrochromano[4,3-b]quinoline]",5.5
2,"COc1cccc2c1[C@H]1Nc3ccc(-c4ccc(C#N)cc4)cc3C(C)(C)[C@@H]1CO2 [Number 92, 4-((12aS,6aS)-1-methoxy-7,7-dimethyl-7,12,12a,6a-tetrahydrochromano[4,3-b]quinolin-9-yl)benzenecarbonitrile]",8.7
3,"CC(C)Oc1ccc2c(c1)C(C)(C)C1COc3c(F)cccc3C1N2 (centres unmarked) [Number 102, 4-fluoro-7,7-dimethyl-9-(methylethoxy)-7,12,12a,6a-tetrahydrochromano[4,3-b]quinoline]",4.2
4,"COc1cccc2c1OCC1C2Nc2ccc(-c3nnn[nH]3)cc2C1(C)C (centres unmarked) [Number 19, 4-methoxy-7,7-dimethyl-9-(1,2,3,4-tetraazol-5-yl)-7,12,12a,6a-tetrahydrochromano[4,3-b]quinoline]",5.6
5,"CC(C)=CCOC(=O)c1ccc2c(c1)C1Nc3ccc(B(O)O)cc3C(C)(C)C1CO2 (centres unmarked) [Number 15, 3-methylbut-2-enyl 9-(dihydroxyboramethyl)-7,7-dimethyl-7,12,12a,6a-tetrahydrochromano[4,3-b]quinoline-2-carboxylate]",1.8
6,"COc1cccc2c1[C@H]1Nc3ccccc3C(C)(C)[C@H]1CO2 [Number 53, (12aS,6aR)-1-methoxy-7,7-dimethyl-7,12,12a,6a-tetrahydrochromano[4,3-b]quinoline]",3.5
7,"CNS(=O)(=O)Cc1ccc2c(c1)C(C)(C)C1COc3cccc(OC)c3C1N2 (centres unmarked) [Number 89, {[(1-methoxy-7,7-dimethyl(7,12,12a,6a-tetrahydrochromano[4,3-b]quinolin-9-yl))methyl]sulfonyl}methylamine]",6.4
8,"CC1(C)c2cc(CC(=O)O)ccc2NC2c3cc(Br)ccc3OCC21 (centres unmarked) [Number 4, 2-(2-bromo-7,7-dimethyl-7,12,12a,6a-tetrahydrochromano[4,3-b]quinolin-9-yl)acetic acid]",2.1
9,"CC(C)Oc1ccc2c(c1)C(C)(C)C1COc3c(F)cccc3[C@H]1N2 (stereo partly drawn) [Number 103, (12aS)-4-fluoro-7,7-dimethyl-9-(methylethoxy)-7,12,12a,6a-tetrahydrochromano[4,3-b]quinoline]",4.0
10,"COc1ccc(Br)c2c1OCC1C2Nc2ccc(OC(C)C)cc2C1(C)C (centres unmarked) [Number 83, 1-bromo-4-methoxy-7,7-dimethyl-9-(methylethoxy)-7,12,12a,6a-tetrahydrochromano[4,3-b]quinoline]",2.7
11,"COc1cccc2c1[C@H]1Nc3ccc(-n4cc(C(=O)N5CCS(=O)(=O)CC5)cn4)cc3C(C)(C)[C@H]1CO2 [Number 138, 1-((6aR,12aS)-6a,7,12,12a-tetrahydro-1-methoxy-7,7-dimethyl-6H-chromeno[4,3-b]quinolin-9-yl)1-1H-pyrazole-4-((1,1-dione-1,4-thiazaperhydroin-yl)methanone)]",7.4
12,"CNS(=O)(=O)Cc1ccc2c(c1)C(C)(C)C1COc3c(OC)cccc3C1N2 (centres unmarked) [Number 59, {[(4-methoxy-7,7-dimethyl(7,12,12a,6a-tetrahydrochromano[4,3-b]quinolin-9-yl))methyl]sulfonyl}methylamine]",6.1
13,"CCOP(=O)(Cc1ccc2c(c1)C(C)(C)C1COc3c(OC)cc(Cl)cc3C1N2)OCC (centres unmarked) [Number 91, [(2-chloro-4-methoxy-7,7-dimethyl(7,12,12a,6a-tetrahydrochromano[4,3-b]quinolin-9-yl))methyl]diethoxyphosphino-1-one]",6.2
14,"COc1cccc2c1OCC1C2Nc2ccc(C(N)=O)cc2C1(C)C (centres unmarked) [Number 23, 4-methoxy-7,7-dimethyl-7,12,12a,6a-tetrahydrochromano[4,3-b]quinoline-9-carboxamide]",6.1
15,"Cc1cccc2c1OCC1[C@@H]2Nc2ccccc2C1(C)C (stereo partly drawn) [Number 32, (12aS)-4,7,7-trimethyl-7,12,12a,6a-tetrahydrochromano[4,3-b]quinoline]",4.9
16,"COC(=O)CCc1ccc2c(c1)C1Nc3ccc(C(O)(C(F)(F)F)C(F)(F)F)cc3C(C)(C)C1CO2 (centres unmarked) [Number 40, methyl 3-{7,7-dimethyl-9-[2,2,2-trifluoro-1-hydroxy-1-(trifluoromethyl)ethyl]-7,12,12a,6a-tetrahydrochromano[4,3-b]quinolin-2-yl}propanoate]",2.1
17,"COc1cccc2c1OC[C@@H]1[C@@H]2Nc2ccccc2C1(C)C [Number 38, (12aS,6aS)-4-methoxy-7,7-dimethyl-7,12,12a,6a-tetrahydrochromano[4,3-b]quinoline]",7.0
18,"COc1cc(Cl)cc2c1OCC1C2Nc2ccc(NS(=O)(=O)c3ccc(C)cc3)cc2C1(C)C (centres unmarked) [Number 105, (2-chloro-4-methoxy-7,7-dimethyl(7,12,12a,6a-tetrahydrochromano[4,3-b]quinolin-9-yl))[(4-methylphenyl)sulfonyl]amine]",3.6
19,"COc1ccc(Br)c2c1OCC1C2Nc2ccc(C(N)=S)cc2C1(C)C (centres unmarked) [Number 82, amino(1-bromo-4-methoxy-7,7-dimethyl(7,12,12a,6a-tetrahydrochromano[4,3-b]quinolin-9-yl))methane-1-thione]",2.0
20,"COc1cccc2c1[C@H]1Nc3ccc(-c4nc(C(=O)N5CCS(=O)(=O)CC5)co4)cc3C(C)(C)[C@H]1CO2 [Number 148, 2-((6aR,12aS)-1-methoxy-6a,7,12,12a-tetrahydro-7,7-dimethyl-6H-chromeno[4,3-b]quinolin-9-yl)oxazole-(4-(1,1-dione-1,4-thiazaperhydroin-yl)methanone)]",11
21,"COc1cccc2c1OC[C@@H]1[C@H]2Nc2ccc(F)cc2C1(C)C [Number 48, (6aS,12aR)-9-fluoro-4-methoxy-7,7-dimethyl-7,12,12a,6a-tetrahydrochromano[4,3-b]quinoline]",3.7
22,"COc1cccc2c1[C@H]1Nc3ccc(-n4ncc(C(=O)N5CCS(=O)(=O)CC5)c4C)cc3C(C)(C)[C@H]1CO2 [Number 141, 1-((6aR,12aS)-6a,7,12,12a-tetrahydro-1-methoxy-7,7-dimethyl-6H-chromeno[4,3-b]quinolin-9-yl)1-5-methyl-1H-pyrazole-4-((1,1-dione-1,4-thiazaperhydroin-yl)methanone)]",7.1

# Same assay, conditions: Homo sapiens, 10 μM test compound, 18-20 hours, read-out: ABCA1 Induction Fold Increase over DMSO Vehicle
row,Compound,fold induction at 10 µM
1,"COc1cc(I)cc2c1OC[C@H]1[C@@H]2Nc2ccc(-n3ncc(C(=O)O)c3C)cc2C1(C)C [Number 178, 1-((6aR,12aS)-6a,7,12,12a-tetrahydro-2-iodo-4-methoxy-7,7-dimethyl-6H-chromeno[4,3-b]quinolin-9-yl)-5-methyl-1H-pyrazole-4-carboxylic acid]",5.1
2,"COc1cccc2c1OC[C@H]1[C@@H]2Nc2ccc(-c3nc(C(=O)O)co3)cc2C1(C)C [Number 146, 2-((6aR,12aS)-6a,7,12,12a-tetrahydro-4-methoxy-7,7-dimethyl-6H-chromeno[4,3-b]quinolin-9-yl)oxazole-4-carboxylic acid]",8.2
3,"COc1cc(Br)cc2c1OC[C@H]1[C@@H]2Nc2ccc(-c3cnco3)cc2C1(C)C [Number 149, (6aR,12aS)-2-bromo-6a,7,12,12a-tetrahydro-4-methoxy-7,7-dimethyl-9-(oxazol-5-yl)-6H-chromeno[4,3-b]quinoline]",5.5
4,"COc1cccc2c1OC[C@@H]1[C@@H]2Nc2ccc(C(=O)N3CCOCC3)cc2C1(C)C [Number 120, ((6aS,12aS)-6a,7,12,12a-tetrahydro-4-methoxy-7,7-dimethyl-6H-chromeno[4,3-b]quinolin-9-yl)(morpholino)methanone]",4.2
5,"COc1ccc2c(c1)C1Nc3ccc(C(O)(C(F)(F)F)C(F)(F)F)cc3C(C)(C)C1CO2 (centres unmarked) [Number 7, 1,1,1,3,3,3-hexafluoro-2-(2-methoxy-7,7-dimethyl(7,12,12a,6a-tetrahydrochromano[4,3-b]quinolin-9-yl))propan-2-ol]",3.1
6,"CCOC(=O)CN1c2ccccc2C(C)(C)[C@H]2COc3cccc(OC)c3[C@H]21 [Number 157, ethyl 2-((6aR,12aS)-6a,7-dihydro-1-methoxy-7,7-dimethyl-6H-chromeno[4,3-b]quinolin-12(12aH)-yl)acetate]",3.3
7,"CCCCN1c2ccccc2C(C)(C)[C@@H]2COc3cccc(OC)c3[C@H]21 [Number 175, (6aS,12aS)-12-butyl-6a,7,12,12a-tetrahydro-1-methoxy-7,7-dimethyl-6H-chromeno[4,3-b]quinoline]",1.5
8,"CCCCN1c2ccccc2C(C)(C)[C@H]2COc3cccc(OC)c3[C@H]21 [Number 174, (6aR,12aS)-12-butyl-6a,7,12,12a-tetrahydro-1-methoxy-7,7-dimethyl-6H-chromeno[4,3-b]quinoline]",1.9
9,"COc1ccc2c(c1)C(C)(C)[C@@H]1COc3cccc(OC)c3[C@H]1N2C [Number 176, (6aS,12aS)-6a,7,12,12a-tetrahydro-1,9-dimethoxy-7,7,12-trimethyl-6H-chromeno[4,3-b]quinoline]",2.9
10,"COc1cccc2c1[C@@H]1[C@@H](CO2)C(C)(C)c2ccccc2N1CC(=O)O [Number 156, 2-((6aS,12aS)-6a,7-dihydro-1-methoxy-7,7-dimethyl-6H-chromeno[4,3-b]quinolin-12(12aH)-yl)acetic acid]",7.6
